Data taken from patent US10151975B2, “Lithographic printing plate precursor” (AGFA NV, priority 2013, dated 2018).

Assay: Solubility of the compounds: visual homogeneity of mixture in aqueous buffer pH 7
Format: physicochemical
Design: key to Visual homogeneity After 1 hour / Visual homogeneity After 1 day / Visual homogeneity After 4 days / Visual homogeneity After 1 week / Visual homogeneity After 2 weeks: −: heterogeneous mixture; +: homogeneous mixture
Details: for Visual homogeneity After 1 week / Visual homogeneity After 2 weeks / Visual homogeneity After 1 hour / Visual homogeneity After 1 day / Visual homogeneity After 4 days: 100 mg compound in 5 ml aqueous buffer pH = 7, room temperature; for Time after which the mixture becomes homogeneous: 100 mg compound in 5 ml aqueous buffer pH = 7
Procedure: Solubility of the Compounds
100 mg of the inventive and comparative compounds were added to 5 ml of a CertiPUR pH=7 buffer solution available from Merck. The mixture was gently stirred at room temperature and the homogeneity of the mixture was evaluated visually after different times: […]

Row | Visual homogeneity After 1 week | Visual homogeneity After 2 weeks | Visual homogeneity After 1 hour | Visual homogeneity After 1 day | Visual homogeneity After 4 days | Time after which the mixture becomes homogeneous | SMILES
1 | − | − | − | − | − |  | C=C(C)C(=O)OCCCNC(=O)C(=O)NCCCOC(=O)C(=C)C [Compound M-4]
2 | + | + | − | + | + | 1 days | C=CC(=O)NCCOC(=O)C(=O)OCCNC(=O)C=C [Compound M-3]
3 | − | − | − | − | − |  | C=CC(=O)OCCn1c(=O)n(CCOC(=O)C=C)c(=O)n(CCOC(=O)C=C)c1=O [Compound M-6]
4 | − | − | − | − | − |  | C=CC(=O)OCCOCCOc1ccc(C(C)(C)c2ccc(OCCOC(=O)C=C)cc2)cc1 [Compound M-7]

Continued, compound first:

Row | SMILES | Visual homogeneity After 1 week | Visual homogeneity After 2 weeks | Visual homogeneity After 1 hour | Visual homogeneity After 1 day | Visual homogeneity After 4 days | Time after which the mixture becomes homogeneous
5 | C=C(C)C(=O)OCCOC(=O)NCCC(C)CC(C)(C)CNC(=O)OCCOC(=O)C(=C)C (centres unmarked) [Compound M-5] | − | − | − | − | − | 
6 | C=CC(=O)OCCCCOC(=C)C(=O)OCCCCOC(=O)C=C [Compound M-2] | + | + | − | − | − | 1 week
7 | C=C(C)C(=O)OCCOC(=O)C(=O)OCCOC(=O)C(=C)C [Compound M-1] | + | + | − | − | − | 1 week
